In patent US20230348538A1, “METHOD FOR TREATMENT OF DRY EYE COMPRISNG APPLYING P55PIK INHIBITOR” (Wuhan Yicheng Biological Technology Co., Ltd., priority 2020, published 2023):

Columns and labels:
[1] = test system: dry eye model induced by 0.2% benzalkonium chloride solution; test: Benzalkonium chloride dry eye model: tear film break-up time (BUT); format: in vivo, C57BL/6 mice
Method: The healthy male C57BL/6 mice were kept in a controlled environment with a temperature of (25±1)° C., a relative humidity of (25±5)%, and light-dark cycles (9 AM-9 PM) with simulated dawn and dusk. Forty mice (80 eyes) were treated with 5 μL of 0.2% benzalkonium chloride solution twice a day (8:00 AM and 6:00 PM) for 14 days to induce dry eye symptoms, while the remaining ten mice (20 eyes) received no treatment and served as a baseline control. Modeling was carried out on the 15th day; and the dry eye rat models were screened based on tear film break-up time (BUT), fluorescein sodium staining of corneal, and Schirmer's test I for tear secretion. Tear film break-up time (BUT) was used to assess the tear film stability: 1 μL of 1% fluorescein sodium solution was instilled into the conjunctival sac of the mouse, and the mouse was held and blinked artificially three times; the upper and lower eyelids of the mouse were then separated; and the tear film was observed under cobalt blue filter on a slit lamp; the tear film break-up time was recorded as the number of seconds that elapse between the last blink and the appearance of the first dry spot in the tear film of the cornea; each eye was measured three times, and the average of the three measurements was recorded in seconds. […] Group A, the drug treatment group, was treated with the eye drops comprising 0.1% TAT-[…] peptide, four times a day; Group B, the solvent control group, was treated with eye drops without TAT-[…] peptide, four times a day; and Group C, the blank control group, received no treatment; on days 1, 4, and 7 after treatment, BUT, Schirmer's test I, and fluorescein sodium staining were performed; on the 7th day, the paraffin sections of the conjunctival fornix was stained by PAS stain; and the number of PAS-positive goblet cells was counted.

[2] = test system: rabbit model of dry eye (0.1% benzalkonium chloride); test: Rabbit model of dry eye: conjunctival impression cytology (CIC), goblet cell density; format: in vivo, New Zealand white rabbits; settings: following medication; statistically significant; FIG. 5
Method: (§1) 1.2.1 Grouping: thirty New Zealand white rabbits were randomly divided into three groups, each comprising 10 rabbits: a blank control group, a solvent control group, and a drug treatment group.
1.2.2 Preparation of a rabbit model of dry eye: the right eye of each rabbit was used to establish a dry eye rabbit model by administering 0.1% benzalkonium chloride eye drops twice a day for 4 weeks. After 4 weeks, the dry eye rabbit model was evaluated, with the conjunctiva appearing dry, tear production being reduced, and Schirmer test values being less than 10 mm/5 min (compared to the control group, where all Schirmer test values were above 10 mm). […]
1.3.3 Conjunctival impression cytology (CIC) examination: CIC examination was performed on days 1, 4, and 7 after treatment; the nitrocellulose membranes were cut into two strips of 3.5 mm×3.5 mm each, soaked in distilled water for 4 h, and then dried; after surface anesthesia, the rough side of the two strips of the nitrocellulose membranes were placed on the nasal and temporal quadrants of the conjunctiva and pressed for 10 seconds to obtain surface epithelial cells; the nitrocellulose membranes were then fixed in 95% ethanol and stained with periodic acid-Schiff (PAS); the number of the goblet cells was counted under an optical microscope and graded according to the Nelson scoring system.

[3] = test system: dry eye model induced by 0.2% benzalkonium chloride solution; test: Benzalkonium chloride dry eye model: corneal fluorescein sodium staining score; format: in vivo, C57BL/6 mice; settings: for Corneal fluorescein staining scores (x ± s): total score of 16 points
Method: The healthy male C57BL/6 mice were kept in a controlled environment with a temperature of (25±1)° C., a relative humidity of (25±5)%, and light-dark cycles (9 AM-9 PM) with simulated dawn and dusk. Forty mice (80 eyes) were treated with 5 μL of 0.2% benzalkonium chloride solution twice a day (8:00 AM and 6:00 PM) for 14 days to induce dry eye symptoms, while the remaining ten mice (20 eyes) received no treatment and served as a baseline control. Modeling was carried out on the 15th day; and the dry eye rat models were screened based on tear film break-up time (BUT), fluorescein sodium staining of corneal, and Schirmer's test I for tear secretion. Fluorescein sodium staining was carried out to determine if there any epithelial damage in the corneal of mice; one drop of 1% fluorescein sodium solution was instilled into the conjunctival sac of the mouse eyes; after 1 minute, the corneal epithelial stained by fluorescein sodium was observed under the cobalt blue filter on the slit lamp. Scoring criteria: the cornea was divided into 4 quadrants; and a scoring system was used to assess the staining; each quadrant was given a score ranging from 0 to 4 points, with a total score of 16 points. A score of 0 indicated no staining; 1 point represented less than 30 punctate staining spots; 2 points represented more than 30 punctate staining spots but not diffuse; 3 points represented obviously diffuse staining but no patchy staining; 4 points represented patchy staining. […] Group A, the drug treatment group, was treated with the eye drops comprising 0.1% TAT-[…] peptide, four times a day; Group B, the solvent control group, was treated with eye drops without TAT-[…] peptide, four times a day; and Group C, the blank control group, received no treatment; on days 1, 4, and 7 after treatment, BUT, Schirmer's test I, and fluorescein sodium staining were performed; on the 7th day, the paraffin sections of the conjunctival fornix was stained by PAS stain; and the number of PAS-positive goblet cells was counted.

[4] = test system: rabbit model of dry eye (0.1% benzalkonium chloride); test: Rabbit model of dry eye: conjunctiva appearance and fluorescein staining; format: in vivo, New Zealand white rabbits
Method: as §1
(§2) 1.2.2 Preparation of a rabbit model of dry eye: the right eye of each rabbit was used to establish a dry eye rabbit model by administering 0.1% benzalkonium chloride eye drops twice a day for 4 weeks. After 4 weeks, the dry eye rabbit model was evaluated, with the conjunctiva appearing dry, tear production being reduced, and Schirmer test values being less than 10 mm/5 min (compared to the control group, where all Schirmer test values were above 10 mm).
(§3) 1.2.3 Drug preparation and usage: a liquid formulation of 0.1% TAT-N16 peptide eye drops were prepared by dissolving the peptide raw materials in physiological saline according to a weight ratio of 0.1%. The eye drops comprising 0.1% TAT-N16 peptide were administered 2 drops, 3 times a day for 7 days. The blank control group received no treatment, and the solvent control group received physiological saline eye drops 2 drops, 3 times a day for 7 days. The normal eye group served as a normal control group.
(§4) 1.3 Specimen collection and animal testing were conducted by the same individual. The examination time, location, illumination brightness, and temperature were consistent throughout the experiment. The rabbit conjunctiva appearance, fluorescein staining, tear film break-up time were analyzed using a slit lamp before and on days 4 and 7 after treatment; additionally, the Schirmer's test and conjunctival impression cytology (CIC) were carried out.

[5] = test system: rabbit model of dry eye (0.1% benzalkonium chloride); test: Rabbit model of dry eye: Schirmer's test; format: in vivo, New Zealand white rabbits
Method: as §1, §2, §3
as §4, with “The examination time, location, illumination brightness, and temperature were consistent throughout the experiment.” left out
1.3.1 Schirmer's test: the corneal surface was anesthetized with oxybuprocaine hydrochloride; a cotton swab was used to absorb the fluid around the eyelid; the Schirmer tear test strips were placed at the junction of the ⅓ posterior-middle of the lower conjunctival sac of the New Zealand white rabbit, with the remaining part hanging on the skin surface; the New Zealand white rabbit was then instructed to close its eyes, and after 5 minutes, the length of wet portion of the Schirmer tear test strips was measured.

[6] = 0 d (baseline), drug treatment group, 0.1% eye drops
[7] = 4 d, 0.1% eye drops four times a day
[8] = 7 d, 0.1% eye drops four times a day

TAT-N16 peptide: cell-penetrating artificial peptide, sequence SEQ ID NO: 2, constructed by linking the peptide N16 to a TAT sequence; P55PIK inhibitor (YGRKKRRQRRRMMPYSTELIFYIEMDP)
Tear film break-up time (BUT) values (x ± s) [1, 6]: 3.49 ± 0.43 s | Tear film break-up time compared with blank control group, model control group and solvent control group ([1]; 4th day of treatment): significantly longer | Tear film break-up time (BUT) values (x ± s) [1, 7]: 4.82 ± 0.57 s | Tear film break-up time (BUT) values (x ± s) [1, 8]: 5.99 ± 0.55 s | Tear film break-up time compared with blank control group, model control group and solvent control group ([1]; 7 days of continuous treatment, P=0.007): significantly longer | Goblet cell density (CIC examination) compared to before medication [2]: gradual increase | Corneal fluorescein staining scores (x ± s) [3, 6]: 8.29 ± 1.31 | Corneal fluorescein staining score compared with blank control group, model control group and solvent control group ([3]; 4th day of treatment): significantly lower | Corneal fluorescein staining scores (x ± s) [3, 7]: 4.12 ± 0.81 | Corneal fluorescein staining scores (x ± s) [3, 8]: 2.79 ± 1.25 | Corneal fluorescein staining score compared with blank control group, model control group and solvent control group ([3]; 7 days of continuous treatment, P<0.05): significantly lower | Appearance of the rabbit conjunctiva ([4]; after 4 days of treatment): improved | Dot-like and patchy fluorescein staining on the conjunctiva ([4]; after 4 days of treatment): decreased | Appearance of the rabbit conjunctiva ([4]; after 7 days of treatment): appeared moist | Fluorescein staining on the conjunctiva ([4]; after 7 days of treatment): no staining was observed | Schirmer' test values ([5]; 0 d / before treatment (baseline), drug treatment group): 8.38±0.57 mm | Schirmer' test values ([5]; 4 d, 0.1% eye drops 2 drops, 3 times a day): 12.02±1.21 mm | Schirmer' test values ([5]; 7 d, 0.1% eye drops 2 drops, 3 times a day): 16.31±1.45 mm
